Columns and labels:
[1] = test system: mast cells (MC); assay: Mast cell identification by MCT, MCC and CKit immunohistochemical markers in scar biopsies (double-blind placebo-controlled punch-biopsy trial); assay type: in vivo, human
Description: A double-blind randomized placebo-controlled trial was conducted using a temporal punch-biopsy model. The punch biopsy and topical application methodology used in the study is illustrated in FIG. 1, namely showing pre-injury pre-emptive priming (7-days), pre-injury pre-emptive priming (3-days), day of injury (immediate application on day 0), post-injury (delayed 2 weeks post injury) including biopsy time points and time of topical applications. Each group applied both placebo and topical formulations twice daily for the duration of the study until week 8, with only the starting time point differing between groups Participants were split into 4 groups (n=10 in each group) in order to compare different modes (timings) of commencement of the topical application: • Group-1: Pre-emptive Priming (7-days): pre-injury • Group-2: Pre-emptive Priming (3-days): pre-injury • Group-3: Immediate (0-day): day-of-injury • Group-4: Delayed (14-days): post-injury Clinical quantitative devices were used to objectively monitor cutaneous healing at weekly intervals and punch biopsies were performed on day 0 (uninjured skin) and at weeks 4 and 8 for protein and gene expression analyses. In the trial, topical EGCG and a placebo topical were applied twice daily for the duration of the trial until week 8 with only the starting time points differing between groups. Clinical and experimental analysis involved use of non-invasive devices as well as protein and gene studies. Excisional skin biopsies in upper arms were evaluated weekly with multiple quantitative devices over an 8-week period. Immunohistochemical analyses, mRNA sequencing and QRT-PCR were performed on tissue biopsies. MC identification was performed using mast cell tryptase (MCT), mast cell chymase (MCC) and CKit markers. […] The percentage differences between the change in placebo and EGCG for group-1 compared to group-2 was 58% (p=0.002), group-3 was 53% (p=0.003) and group-4 was 52% (p=0.005). […] The greatest difference was in group-1 compared to group-3 by 26% (p=0.02) and group-4 by 27% (p=0.02). Subsequent QRT-PCR analysis further confirmed down-regulation of MCT and MCC (p<0.05) in EGCG-treated samples at week-4 in all groups. MCT, MCC and CKit quantitative measurements are expressed in mm^2.

[2] = test system: human skin scarring model; assay: Blood flow by full-field laser perfusion imaging (FLPI); assay type: in vivo
Description: (§1) A double-blind randomized placebo-controlled trial was conducted using a temporal punch-biopsy model. The punch biopsy and topical application methodology used in the study is illustrated in FIG. 1, namely showing pre-injury pre-emptive priming (7-days), pre-injury pre-emptive priming (3-days), day of injury (immediate application on day 0), post-injury (delayed 2 weeks post injury) including biopsy time points and time of topical applications. Each group applied both placebo and topical formulations twice daily for the duration of the study until week 8, with only the starting time point differing between groups Participants were split into 4 groups (n=10 in each group) in order to compare different modes (timings) of commencement of the topical application: • Group-1: Pre-emptive Priming (7-days): pre-injury • Group-2: Pre-emptive Priming (3-days): pre-injury • Group-3: Immediate (0-day): day-of-injury • Group-4: Delayed (14-days): post-injury Clinical quantitative devices were used to objectively monitor cutaneous healing at weekly intervals and punch biopsies were performed on day 0 (uninjured skin) and at weeks 4 and 8 for protein and gene expression analyses. In the trial, topical EGCG and a placebo topical were applied twice daily for the duration of the trial until week 8 with only the starting time points differing between groups. […]

[3] = test system: human skin scarring model; assay: Blood flow by dynamic optical coherence tomography (D-OCT); assay type: in vivo
Description: A double-blind randomized placebo-controlled trial was conducted using a temporal punch-biopsy model. The punch biopsy and topical application methodology used in the study is illustrated in FIG. 1, namely showing pre-injury pre-emptive priming (7-days), pre-injury pre-emptive priming (3-days), day of injury (immediate application on day 0), post-injury (delayed 2 weeks post injury) including biopsy time points and time of topical applications. Each group applied both placebo and topical formulations twice daily for the duration of the study until week 8, with only the starting time point differing between groups Participants were split into 4 groups (n=10 in each group) in order to compare different modes (timings) of commencement of the topical application: • Group-1: Pre-emptive Priming (7-days): pre-injury • Group-2: Pre-emptive Priming (3-days): pre-injury • Group-3: Immediate (0-day): day-of-injury • Group-4: Delayed (14-days): post-injury Clinical quantitative devices were used to objectively monitor cutaneous healing at weekly intervals and punch biopsies were performed on day 0 (uninjured skin) and at weeks 4 and 8 for protein and gene expression analyses. In the trial, topical EGCG and a placebo topical were applied twice daily for the duration of the trial until week 8 with only the starting time points differing between groups. Blood flow analysis using non-invasive objective measures, including full-field laser perfusion imaging (FLPI) and dynamic optical coherence tomography (D-OCT), was undertaken. Clinical images and the corresponding FLPI and D-OCT images are shown in FIGS. 6a, 6b and 6c respectively.

[4] = test system: VEGF-A; assay: Gene expression analysis of VEGF-A; assay type: in vivo, human; details: week 4, groups 1-2 and 4, p<0.05
Description: as §1, with “[…] Excisional skin biopsies in upper arms” for “In the trial, topical EGCG and a placebo topical”, “evaluated weekly” for “applied twice daily for the duration of the trial until week 8”, “multiple quantitative devices over an 8-week period.” for “only the starting time points differing between groups.”

[5] = test system: zone of injury; details: topical EGCG, zonal priming; cited from earlier work
[6] = weeks 4 and 8, all groups, p<0.01, topical twice daily

O=C(OC1Cc2c(O)cc(O)cc2OC1c1cc(O)c(O)c(O)c1)c1cc(O)c(O)c(O)c1 (single isomer, unassigned; (-)) [EGCG, (-)-epigallocatechin-3-gallate]
Resident mast cell population in primed uninjured skin ([1]; primed uninjured skin prior to injury): reduces the resident mast cell population
MCC: larger difference of group-2 than group-4 ([1]; week 4, 3-day priming vs delayed, p=0.009): 29%
MCT: percentage difference between the change in placebo and EGCG, group-1 compared to group-2 ([1]; week 4, 7-day pre-injury priming vs 3-day priming, p=0.002): 58%
MCT: percentage difference between the change in placebo and EGCG, group-1 compared to group-4 ([1]; week 4, 7-day pre-injury priming vs delayed (14 days), p=0.005): 52%
MCT: percentage difference between the change in placebo and EGCG, group-1 compared to group-3 ([1]; week 4, 7-day pre-injury priming vs immediate (day 0), p=0.003): 53%
MCC: greater difference of group-1 than group-4 ([1]; week 4, 7-day priming vs delayed, p=0.001): 41%
CKit: difference of group-1 compared to group-4 ([1]; week 4, 7-day priming vs delayed, p=0.02): 27%
MCC: greater difference of group-1 than group-3 ([1]; week 4, 7-day priming vs immediate, p=0.01): 29%
CKit: difference of group-1 compared to group-3 ([1]; week 4, 7-day priming vs immediate, p=0.02): 26%
CKit positive cells, EGCG-treated scars compared to placebo-treated scars [1, 6]: significantly fewer positive cells
MCC positive cells, EGCG-treated scars compared to placebo-treated scars [1, 6]: significantly fewer positive cells
MCT positive cells, EGCG-treated scars compared to placebo-treated scars [1, 6]: significantly fewer positive cells
FLPI blood flow, EGCG arms compared to placebo arms ([2]; group-1 weeks 1 and 8, group-2 weeks 3, 7, 8, group-3 weeks 1-3, 6-8, group-4 weeks 3-8, p<0.01): significant reduction
FLPI blood flow, between group comparison, groups-1 and 3 vs group-4 ([2]; week 1, p<0.001, p=0.002): reduced blood flow more than group-4
D-OCT blood flow, EGCG-treated compared to placebo ([3]; group-1 weeks 1-8, group-2 weeks 1-8, group-3 weeks 1-5, 7, 8, group-4 weeks 4-7, p<0.01): significantly decreased
D-OCT blood flow, group comparison, groups 1-3 vs group-4 ([3]; week 1, p<0.001, p=0.006, p=0.001): reduced blood flow more than group-4
D-OCT blood flow, group comparison, group-1 vs group-4 ([3]; week 2, p=0.016): greater difference than group-4
D-OCT blood flow, group comparison, group-2 vs groups-3 and -4 ([3]; week 8, p=0.003, p=0.002): reduced more than groups-3 and -4
VEGF-A gene expression, EGCG-treated samples compared to placebo [4]: significant reductions
Scar outcome, immediate application to zone of injury compared with delayed application two-weeks post-wounding [5]: reduced scar thickness and angiogenesis, plus increased hydration and elasticity

Reference: US12691092B2, “Method for reducing cutaneous skin scarring by pre-emptive priming and compounds and compositions for its implementation” (SOS SCIENCE OF SKIN LTD, priority 2020, dated 2026)
